Reference: ChEMBL document CHEMBL5608163, “Structure modification of anoplin for fighting resistant bacteria” (Eur J Med Chem, 2024)
Values after ≈ are worked out from the molar mass of the structure shown. Square brackets hold non-standard residues; d marks the D form. Peptide text beside a SMILES is read from it. * marks the point of attachment. Heptadecanoyl = CCCCCCCCCCCCCCCCC(=O)*; Tridecanoyl = CCCCCCCCCCCCC(=O)*; hIle = CC[C@H](C)C[C@H](N)C(=O)O; Cha = N[C@@H](CC1CCCCC1)C(=O)O; Undecanoyl = CCCCCCCCCCC(=O)*; Nonanoyl = CCCCCCCCC(=O)*

Columns and labels:
Escherichia coli [1] = assay: Antibacterial activity against Escherichia coli ATCC 25922 assessed as bacterial growth inhibition incubate for 18 to 20 hrs by MH broth based assay; format: functional; details: time 18-20 hrs
Staphylococcus aureus [2] = assay: Antimicrobial activity against Staphylococcus aureus ATCC 25923 assessed as reduction in microbial growth incubated for 18 to 20 hrs by Mueller-Hinton broth based microdilution method; format: functional; details: time 18-20 hrs
Enterococcus faecium = assay: Antimicrobial activity against Enterococcus faecium assessed as reduction in microbial growth incubated for 18 to 20 hrs by Mueller-Hinton broth based microdilution method; format: functional; details: time 18-20 hrs
[3] = Hemolytic activity in mouse RBC incubated for 1 hr; format: toxicity, cell-based, Erythrocyte; details: red blood cells
[4] = Hemolytic activity in human RBC; format: toxicity, cell-based, Erythrocyte; details: red blood cells
Escherichia coli [5] = assay: Antibacterial activity against Escherichia coli ATCC 25922 assessed as reduction in bacterial growth incubated for 48 hrs by Mueller-Hinton broth based microdilution method; format: functional
Staphylococcus aureus [6] = assay: Antibacterial activity against Staphylococcus aureus ATCC 25923 assessed as reduction in bacterial growth incubated for 48 hrs by Mueller-Hinton broth based microdilution method; format: functional
[7] = Hemolytic activity in human erythrocyte incubated for 1 hr; format: toxicity, cell-based; details: erythrocytes
Escherichia coli [8] = assay: Antibacterial activity against Escherichia coli DH5a assessed as reduction in bacterial growth; format: functional
[9] = Hemolytic activity in human erythrocytes; format: toxicity, cell-based, Erythrocyte
[10] = tested on: Mycolicibacterium smegmatis; assay: Antimycobacterial activity against Mycobacterium smegmatis mc2 155 assessed as reduction in bacterial cell growth incubated for 48 hrs by resazurin dye based assay; format: functional
Zymomonas mobilis [11] = assay: Antibacterial activity against Zymomonas mobilis ATCC 10988 assessed as reduction in bacterial growth; format: functional
Bacillus subtilis [12] = assay: Antibacterial activity against Bacillus subtilis assessed as reduction in bacterial growth; format: functional
Pseudomonas aeruginosa [13] = assay: Antibacterial activity against Pseudomonas aeruginosa PAO1 assessed as reduction in bacterial growth; format: functional
[14] = Hemolytic activity in human erythrocytes measured after 1 hrs by microplate reader analysis; format: toxicity, cell-based, Erythrocyte
Bacillus subtilis [15] = assay: Antibacterial activity against Bacillus subtilis assessed as bacterial growth inhibition; format: functional
Escherichia coli [16] = assay: Antibacterial activity against Escherichia coli DH5a assessed as bacterial growth inhibition; format: functional
Pseudomonas aeruginosa [17] = assay: Antibacterial activity against Pseudomonas aeruginosa PAO1 assessed as bacterial growth inhibition; format: functional
[18] = tested on: Mycolicibacterium smegmatis; assay: Antibacterial activity against Mycobacterium smegmatis mc2 155 assessed as bacterial growth inhibition; format: functional
Zymomonas mobilis [19] = assay: Antibacterial activity against Zymomonas mobilis ATCC 10988 assessed as bacterial growth inhibition; format: functional

SMILES | MIC (Escherichia coli [5]) [µM] | MIC (Staphylococcus aureus [6]) [µM] | HC50 at 1 h [7] [µM] | MIC (Escherichia coli [8]) [µM] | HC50 [9] [µM] | MIC [10] [µM] | MIC (Zymomonas mobilis [11]) [µM] | MIC (Bacillus subtilis [12]) [µM] | MIC (Pseudomonas aeruginosa [13]) [µM] | also measured
CC[C@H](C)C[C@H](NC(=O)[C@H](CCCNC(=N)N)NC(=O)[C@H](CCCCN)NC(=O)[C@H](CC(C)C)NC(=O)[C@H](CC1CCCCC1)NC(=O)CN)C(=O)N[C@@H](CCCCN)C(=O)N[C@H](C(=O)N[C@@H](CC(C)C)C(=O)N[C@@H](CC1CCCCC1)C(N)=O)[C@@H](C)O (H-G[Cha]LKR[hIle]KTL[Cha]-NH2) |  |  |  |  |  |  |  |  |  | MIC (Escherichia coli [1]): 6.25 µM (≈ 7.8 µg/mL); MIC (Staphylococcus aureus [2]): 5.3 µM; MIC (Enterococcus faecium): 3.2 µM; HC50 at 1 h [3]: 31.2 µM; HC50 [4]: 31.2 µM
CCCCCCCCCCCCCCCCC(=O)NCC(=O)N[C@@H](CC(C)C)C(=O)N[C@@H](CC(C)C)C(=O)N[C@@H](CCCCN)C(=O)N[C@@H](CCCNC(=N)N)C(N)=O (Heptadecanoyl-GLLKR-NH2) | 7.88 (≈ 6.6 µg/mL) | 3.94 (≈ 3.3 µg/mL) | 80.2 |  |  |  |  |  |  | 
CCCCCCCCCCCCCCCCC(=O)NCC(=O)N[C@@H](CC(C)C)C(=O)N[C@@H](CC(C)C)C(=O)N[C@@H](CCCCN)C(=O)N[C@@H](CCCNC(=N)N)C(=O)N[C@H](C(N)=O)[C@@H](C)CC (Heptadecanoyl-GLLKRI-NH2) | 3.47 (≈ 3.3 µg/mL) | 0.66 (≈ 0.627 µg/mL) | 8.01 |  |  |  |  |  |  | 
CCCCCCCCCCCCCCCCC(=O)NCC(=O)N[C@@H](CC(C)C)C(=O)N[C@@H](CC(C)C)C(=O)N[C@@H](CCCCN)C(=O)N[C@@H](CCCNC(=N)N)C(=O)N[C@H](C(=O)N[C@@H](CCCCN)C(N)=O)[C@@H](C)CC (Heptadecanoyl-GLLKRIK-NH2) | 1.53 (≈ 1.65 µg/mL) | 0.76 (≈ 0.82 µg/mL) | 35.4 |  |  |  |  |  |  | 
CCCCCCCCCCCCCCCCC(=O)NCC(=O)N[C@@H](CC(C)C)C(=O)N[C@@H](CC(C)C)C(=O)N[C@@H](CCCCN)C(=O)N[C@@H](CCCNC(=N)N)C(=O)N[C@H](C(=O)N[C@@H](CCCCN)C(=O)N[C@H](C(N)=O)[C@@H](C)O)[C@@H](C)CC (Heptadecanoyl-GLLKRIKT-NH2) | 2.8 (≈ 3.3 µg/mL) | 1.4 (≈ 1.65 µg/mL) | 29 |  |  |  |  |  |  | 
CCCCCCCCCCCCCCCCC(=O)NCC(=O)N[C@@H](CC(C)C)C(=O)N[C@@H](CC(C)C)C(=O)N[C@@H](CCCCN)C(=O)N[C@@H](CCCNC(=N)N)C(=O)N[C@H](C(=O)N[C@@H](CCCCN)C(=O)N[C@H](C(=O)N[C@@H](CC(C)C)C(=O)N[C@@H](CC(C)C)C(=O)O)[C@@H](C)O)[C@@H](C)CC (Heptadecanoyl-GLLKRIKTLL-OH) | 0.32 (≈ 0.45 µg/mL) | 0.32 (≈ 0.45 µg/mL) | 14.8 |  |  |  |  |  |  | 
CCCCCCCCC(=O)NCC(=O)N[C@@H](CC(C)C)C(=O)N[C@@H](CC(C)C)C(=O)N[C@@H](CCCCN)C(=O)N[C@@H](Cc1ccccc1)C(=O)N[C@H](C(=O)N[C@@H](CCCCN)C(=O)N[C@@H](CCCCN)C(=O)N[C@@H](CC(C)C)C(=O)N[C@@H](CC(C)C)C(N)=O)[C@@H](C)CC (Nonanoyl-GLLKFIKKLL-NH2) |  |  |  | 23.1 (≈ 30.3 µg/mL) | < 386 | 3.86 (≈ 5.06 µg/mL) | 3.86 (≈ 5.06 µg/mL) | 8 (≈ 10.5 µg/mL) | 3.86 (≈ 5.06 µg/mL) | 
CCCCCCCCCCCCC(=O)NCC(=O)N[C@@H](CC(C)C)C(=O)N[C@@H](CC(C)C)C(=O)N[C@@H](CCCCN)C(=O)N[C@@H](Cc1ccccc1)C(=O)N[C@H](C(=O)N[C@@H](CCCCN)C(=O)N[C@@H](CCCCN)C(=O)N[C@@H](CC(C)C)C(=O)N[C@@H](CC(C)C)C(N)=O)[C@@H](C)CC (Tridecanoyl-GLLKFIKKLL-NH2) |  |  |  | 22.1 (≈ 30.3 µg/mL) | < 370 | 3.69 (≈ 5.05 µg/mL) | 22.1 (≈ 30.3 µg/mL) | 8 (≈ 10.9 µg/mL) | 3.69 (≈ 5.05 µg/mL) | 
CCCCCCCCCCC(=O)NCC(=O)N[C@@H](CC(C)C)C(=O)N[C@@H](CC(C)C)C(=O)N[C@@H](CCCCN)C(=O)N[C@@H](Cc1ccccc1)C(=O)N[C@H](C(=O)N[C@@H](CCCCN)C(=O)N[C@@H](CCCCN)C(=O)N[C@@H](CC(C)C)C(=O)N[C@@H](CC(C)C)C(N)=O)[C@@H](C)CC (Undecanoyl-GLLKFIKKLL-NH2) |  |  |  | 22.6 (≈ 30.3 µg/mL) | < 377 | 3.77 (≈ 5.05 µg/mL) | 3.77 (≈ 5.05 µg/mL) | 8 (≈ 10.7 µg/mL) | 3.77 (≈ 5.05 µg/mL) | HC50 at 1 h [14]: 148 µM; MIC (Bacillus subtilis [15]): > 170 µM; MIC (Escherichia coli [16]): > 170 µM; MIC (Pseudomonas aeruginosa [17]): 33.9 µM (≈ 45.4 µg/mL); MIC [18]: > 168 µM; MIC (Zymomonas mobilis [19]): 12.7 µM (≈ 17 µg/mL)
